# Reference: patent US20180280528A1, “ANTIFOLATE CONJUGATES FOR TREATING INFLAMMATION” (ENDOCYTE, INC., priority 2015, published 2018)
# pIC50: −log10 of the molar value. Read-outs that look alike come from different tables or passages of the source.
# How the values were obtained:
# [1] = molecular target: T1, human folate receptor (FR)-α (Homo sapiens, UniProt P15328); test: Relative affinity assay (displacement of 3H-folic acid on KB cells); format: binding; settings: 100 nM 3H-folic acid, 1 h at 37° C., normalized against 1 for FA
# T1 construct: endogenous in cells; host or cells: KB cells (human HeLa carcinoma contaminant)
# Experimental: Cell lines utilized to evaluate EC2319 in in-vitro studies were as follows: KB human HeLa carcinoma contaminant expressing the human folate receptor (FR)-α, RAW264.7 mouse macrophage-derived tumor cells expressing a murine FR, THP-1-FRβ human monocytic leukemia engineered to express the human FR-β. All cells were grown in a folate-free RPMI1640 medium (Gibco BRL) (FFRPMI) containing 10% heat-inactivated fetal calf serum (HIFCS) and antibiotics, and maintained under a 5% CO2 atmosphere using standard cell culture techniques.
# EC2319 FR-binding affinity was determined in a relative affinity assay using KB cells as the source of FR. Briefly, KB cells (1×10^5 cells/well) were plated in 24-well plates at 18 to 24 h before use. The cells were then incubated for 1 h at 37° C. with 100 nM of ^3H-folic acid (Moravek Inc.) plus a series of 3.16-fold dilutions of EC2319 or FA at 0.01-31.6 μM in triplicates. At the end of incubation, the cells were washed 3 times with a phosphate-buffered saline (PBS, pH 7.4) and lysed for 5 min at room temperature in 0.5 mL of 0.25 N NaOH. 0.45 mL of the cell lysate was taken from each well and counted in a scintillation counter. […] See result in FIG. 1.
# [2] = tested on: mouse RAW264.7 macrophage cells; test: Cell viability (XTT) assay, RAW264.7; format: cell-based
# Experimental: (§1) All cells were grown in a folate-free RPMI1640 medium (Gibco BRL) (FFRPMI) containing 10% heat-inactivated fetal calf serum (HIFCS) and antibiotics, and maintained under a 5% CO2 atmosphere using standard cell culture techniques.
# (§2) After a 2 h exposure, the drug-containing media were replaced and the cells were allowed to incubate further for 72 h. The cell viability was assessed by adding XTT (2,3-bis(2-methoxy-4-nitro-5-sulfo-phenyl)-2H-tetrazolium-5-carboxanilide) to the culture medium for 3 h following the manufacturer's instructions. All results were expressed as % absorbance (minus background) relative to the untreated control cells. See results in FIG. 2A and FIG. 2B.
# (§3) Importantly, the observed anti-proliferative effect was 100% competable in the presence of excess FA, indicating a FR-specific mode of action.
# human THP-1-FRβ cells = test: Cell viability (XTT) assay, THP-1-FRβ; format: cell-based
# Experimental: as §1, §2, §3
# [3] = 500 nM, 37° C., two hours
# Experimental: Blood samples were maintained at 37° C. for 30 minutes prior to spiking the analyte into 2.5 mL blood at 500 nM. At time 0 and every 30 minutes for two hours, blood samples were removed and centrifuged at 2000×g for 10 minutes to generate plasma. 50 μL aliquots of generated plasma were then transferred to a clean 1.2 mL plate containing N-Maleoyl-β-alanine, mannitol, and acetic acid. Samples were stored at −80° C. until being thawed for LC-MS/MS analysis.
# [4] = 2 h exposure, 72 h chase, XTT, read-out: relative IC50, inhibition of cell proliferation
# T1 sequence (P15328 25-234): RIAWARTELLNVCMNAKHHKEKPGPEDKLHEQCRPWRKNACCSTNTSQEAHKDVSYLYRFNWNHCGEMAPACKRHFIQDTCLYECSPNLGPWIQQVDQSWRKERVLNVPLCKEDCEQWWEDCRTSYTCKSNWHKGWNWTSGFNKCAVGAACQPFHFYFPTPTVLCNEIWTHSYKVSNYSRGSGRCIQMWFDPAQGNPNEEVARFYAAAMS
compound,measurement,setting,value
COC(=O)[C@H](CSSC(C)(C)[C@H](NC(=O)[C@H](CCC(=O)NC[C@H](O)[C@@H](O)[C@H](O)[C@H](O)CO)NC(=O)[C@H](CCC(=O)O)NC(=O)[C@H](CCC(=O)NC[C@H](O)[C@@H](O)[C@H](O)[C@H](O)CO)NC(=O)[C@H](CCC(=O)O)NC(=O)[C@H](CCC(=O)NC[C@H](O)[C@@H](O)[C@H](O)[C@H](O)CO)NC(=O)CC[C@H](NC(=O)c1ccc(NCc2cnc3nc(N)[nH]c(=O)c3n2)cc1)C(=O)O)C(=O)O)NC(=O)CC[C@H](NC(=O)c1ccc(NCc2cnc3nc(N)nc(N)c3n2)cc1)C(=O)O [EC2319],relative affinity,[1],0.493
same,concentrations with cytostatic effect,[2],≥ 10 nM
same,anti-proliferative effect competable in the presence of excess FA,[2]; 100-fold excess FA,100%
same,pIC50,[2]; [4],~8.54
same,concentrations with cytostatic effect,human THP-1-FRβ cells,≥ 100 nM
same,anti-proliferative effect competable in the presence of excess FA,human THP-1-FRβ cells; 100-fold excess FA,100%
same,pIC50,human THP-1-FRβ cells; [4],~8.06
same,"whole blood stability (percent remaining of intact conjugate, formation of EC1886)",[3]; fresh human blood,superior stability profile than EC1669
same,"whole blood stability (percent remaining of intact conjugate, formation of EC1886)",[3]; fresh rat blood,superior stability profile than EC1669
